Assay results reported in paper PMC4919791, “Effect of curcumin analogs onα-synuclein aggregation and cytotoxicity” (Scientific Reports, 2016).
“Also recorded” adds a separate entry of the source.

Columns and labels:
Assay type in all cases: cell-based
α-Syn oligomers = target: T1, α-Syn oligomers (Homo sapiens, UniProt P37840); test: Calcein-AM/EthD-1 staining, α-Syn oligomers with C1/C6; conditions: SH-SY5Y cells
T1 construct: made in house; host or cells: Escherichia coli BL21
Source text: It has been shown that α-Syn mutants that form oligomers preferentially are more toxic and kill dopaminergic neurons in animal models as compared to fibril forming mutants. Therefore, compounds that effectively reduce the toxicity of oligomers could be beneficial for the treatment of PD. In the present study, we tested the effect of curcumin and its analogs on the toxicity, hydrophobic exposure and morphology of α-Syn oligomers isolated using size exclusion chromatography (SEC). The toxicity of α-Syn oligomers in presence and absence of curcumin/analogs were initially tested using MTT assay. […] As previously it has been proposed that curcumin reduces the oligomers toxicity by altering their exposed hydrophobic surface, we also measured the hydrophobic surface exposure of preformed α-Syn oligomers incubated with curcumin and its analogs.
For this assay, SH-SY5Y cells were seeded in 96 well plate and incubated with identical concentrations of oligomers/fibrils (as used in MTT assay) in absence and presence of curcumin and its analogs for 36 h in 5% CO2 incubator at 37 °C. […] Calcein-AM/Ethidium homodimer-1 signal was then checked and imaged with an inverted fluorescence microscope (Leica DMi8). […] The free calcein emits strong fluorescence signal at ~535 nm, which could be easily observed in the green channel of a microscope. […]

α-Syn fibrils = target: T2, α-Syn fibrils (Homo sapiens, UniProt P37840); test: MTT assay of α-Syn fibrils formed in presence of curcumin analogs; conditions: 10 μM α-Syn fibril, 36 h, SH-SY5Y
T2 construct: made in house; host or cells: Escherichia coli BL21
Experimental: Next, we measured the effect of α-Syn fibrils formed in presence and absence of curcumin analogs on the viability of SH-SY5Y neuronal cell line by MTT reduction assay. SH-SY5Y cells were incubated with 10 μM α-Syn fibril formed in presence of various curcumin analogs for 36 h. […] However, the extent of decrease in toxicity was different for different analogs. […] The calcein-AM/ethidium homodimer-1 staining also further corroborated the results obtained from MTT and LDH assay (Fig. 8C).

[1] = target: T3, preformed α-Syn amyloid fibrils (Homo sapiens, UniProt P37840); test: MTT assay of preformed α-Syn fibrils incubated with curcumin analogs; conditions: fibrils incubated with analog 48 h at 37 °C; SH-SY5Y cells
T3 construct: made in house; host or cells: Escherichia coli BL21
Experimental: The concentration of the fibrils was determined by subtraction of supernatant concentration from the original concentration of α-Syn kept for fibrillation.

Structure (SMILES): COc1cc(/C=C/C(=O)CC(=O)/C=C/c2ccc(OCc3ccccc3)c(OC)c2)ccc1OCc1ccccc1 [C6]
- ethidium homodimer staining with α-Syn oligomers (α-Syn oligomers): less ethidium homodimer staining
- toxicity of α-Syn fibrils formed in presence of analog, MTT (α-Syn fibrils): maximum cell viability; also recorded: less toxicity to cells
- cell viability, MTT, preformed α-Syn fibrils incubated with analog [1]: 92.9%
- effect on toxicity of preformed α-Syn fibrils, MTT [1]: reduction in toxicity
